Laboratory results from ChEMBL document CHEMBL6121005 (Eur J Med Chem, 2025).
Activity calls are given as the source filed them. The calls are words filed in the database; no cut-off is given here.

Experiments:
Cholinesterase [1] = target: T1, Cholinesterase (Homo sapiens, UniProt P06276); experiment: Inhibition of human serum BuChE using butyrylthiocholine iodide as substrate at 10 uM incubated for 10 mins followed by substrate addition by DTNB reagent based Ellman's method relative to control
Cholinesterase [2] = target: T1, Cholinesterase; experiment: Inhibition of human serum BuChE using butyrylthiocholine iodide as substrate incubated for 10 mins followed by substrate addition by DTNB reagent based Ellman's method
Acetylcholinesterase = Acetylcholinesterase (Homo sapiens, UniProt P22303); experiment: Inhibition of human erythrocytes AChE measured after 10 mins by Ellman's method
PC-12 [3] = experiment: Cytoprotective against rat PC12 cells assessed as cell viability at 50 uM preincubated for 24 hrs and measured after 4 hrs by CCK-8 assay; assay type: functional, cell-based
PC-12 [4] = experiment: (§1) Neuroprotective activity against H2O2-induced rat PC12 cells assessed as protection against H2O2-induced apoptosis by measuring late apoptotic cells at 50 uM pretreated for 2 hrs followed by H2O2 addition and measured after 24 hrs by Annexin V-FITC/PI staining based flow cytometry analysis (reference value: 7.26 %); assay type: functional; settings: time 26 hrs
PC-12 [5] = experiment: as §1, with “viable” for “late apoptotic”, “90.8” for “7.26”; assay type: functional; settings: time 26 hrs
[6] = Cytotoxicity against rat PC12 cells assessed as cell viability at 50 uM preincubated for 24 hrs and measured after 4 hrs by CCK-8 assay; assay type: toxicity, cell-based, PC-12; settings: time 28 hrs, read-out: Activity
PC-12 [7] = experiment: as §1, with “necrotic” for “late apoptotic”, “0.99” for “7.26”; assay type: functional; settings: time 26 hrs
[8] = Inhibition of H2O2-induced ROS release in rat PC12 cells assessed as mean fluorescence intensity at 50 uM preincubated for 2 hrs followed by H2O2 addition and measured after 24 hrs by DCFH-DA based flow cytometry analysis (reference value: 23904); assay type: functional, PC-12; settings: time 26 hrs
PC-12 [9] = experiment: as §1, with “early” for “late”, “0.88” for “7.26”; assay type: functional; settings: time 26 hrs
PC-12 [10] = experiment: Antioxidant activity against H2O2-induced toxicity in rat PC12 cells at 12.5 uM preincubated for 2 hrs and measured after 24 hrs by CCK-8 assay; assay type: functional, cell-based; settings: time 26.0 hrs

Acetylcholinesterase, sequence (P22303 whole entry): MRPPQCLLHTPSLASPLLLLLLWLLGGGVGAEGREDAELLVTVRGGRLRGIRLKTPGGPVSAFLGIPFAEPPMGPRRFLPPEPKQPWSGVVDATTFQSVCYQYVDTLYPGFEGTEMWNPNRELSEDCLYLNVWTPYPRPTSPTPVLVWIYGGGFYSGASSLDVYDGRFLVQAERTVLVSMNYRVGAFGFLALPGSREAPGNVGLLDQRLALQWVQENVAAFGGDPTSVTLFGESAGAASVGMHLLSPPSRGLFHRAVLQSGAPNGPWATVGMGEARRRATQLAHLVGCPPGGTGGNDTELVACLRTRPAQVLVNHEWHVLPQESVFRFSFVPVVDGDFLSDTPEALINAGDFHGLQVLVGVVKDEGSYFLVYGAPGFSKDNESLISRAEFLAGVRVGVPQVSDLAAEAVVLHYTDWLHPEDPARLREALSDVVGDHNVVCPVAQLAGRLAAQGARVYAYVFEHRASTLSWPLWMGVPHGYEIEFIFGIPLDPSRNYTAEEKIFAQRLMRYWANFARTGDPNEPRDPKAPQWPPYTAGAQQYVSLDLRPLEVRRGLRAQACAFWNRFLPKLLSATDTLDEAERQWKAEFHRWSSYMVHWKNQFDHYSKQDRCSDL
T1 sequence (P06276 whole entry): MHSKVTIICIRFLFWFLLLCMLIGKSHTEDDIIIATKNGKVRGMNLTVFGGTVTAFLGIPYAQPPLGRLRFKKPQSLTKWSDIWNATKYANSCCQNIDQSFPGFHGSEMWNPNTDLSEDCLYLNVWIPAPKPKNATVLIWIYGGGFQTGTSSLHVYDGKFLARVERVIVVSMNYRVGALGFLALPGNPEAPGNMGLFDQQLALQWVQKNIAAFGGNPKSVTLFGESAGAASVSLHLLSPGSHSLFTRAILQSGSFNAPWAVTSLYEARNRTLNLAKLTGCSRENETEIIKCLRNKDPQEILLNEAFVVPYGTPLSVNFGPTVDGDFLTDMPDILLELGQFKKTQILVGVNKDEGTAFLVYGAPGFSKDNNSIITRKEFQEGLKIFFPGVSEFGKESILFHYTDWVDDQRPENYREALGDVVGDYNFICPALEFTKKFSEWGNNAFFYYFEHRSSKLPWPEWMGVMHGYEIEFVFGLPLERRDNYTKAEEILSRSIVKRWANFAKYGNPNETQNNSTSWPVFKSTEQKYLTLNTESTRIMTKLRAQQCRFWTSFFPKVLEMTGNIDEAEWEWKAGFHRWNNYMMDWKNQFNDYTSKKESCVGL

Work on `COc1ccc2c3c1O[C@H]1C[C@@H](OCc4ccc(Cc5ccc(F)cc5)cn4)C=C[C@@]31CCN(C)C2` yielded an inhibition (Cholinesterase [1]) of 90.3% and an IC50 (Cholinesterase [2]) of 1010 nM.

For `COc1ccc(Cc2ccc(CO[C@H]3C=C[C@@]45CCN(C)Cc6ccc(OC)c(c64)O[C@H]5C3)nc2)cc1`, the inhibition (Cholinesterase [1]) was 87% and the IC50 (Cholinesterase [2]) was 1310 nM.

Work on `COc1ccc2c3c1O[C@H]1C[C@@H](OC(=O)NC4CCN(Cc5ccc(F)cc5F)CC4)C=C[C@@]31CCN(C)C2` yielded an inhibition (Cholinesterase [1]) of 19.9% and an IC50 (Acetylcholinesterase) of 1200 nM.

For `COc1cc(CN2CCC(NC(=O)O[C@H]3C=C[C@@]45CCN(C)Cc6ccc(OC)c(c64)O[C@H]5C3)CC2)cc(OC)c1`, the inhibition (Cholinesterase [1]) was 12.9%.

`COc1ccc2c3c1O[C@H]1C[C@@H](OC(=O)NC4CCN(Cc5ccc(C)cc5)CC4)C=C[C@@]31CCN(C)C2` gave an inhibition (Cholinesterase [1]) of 28.7%.

Work on `COc1ccc2c3c1O[C@H]1C[C@@H](OC(=O)NCc4ccc5ccccc5c4)C=C[C@@]31CCN(C)C2` yielded an inhibition (Cholinesterase [1]) of 6.44%.

With `COc1ccc2c3c1O[C@H]1C[C@@H](OC(=O)NCc4cccc(F)c4)C=C[C@@]31CCN(C)C2` the inhibition (Cholinesterase [1]) was 14.6%.

Work on `COc1ccc2c3c1O[C@H]1C[C@@H](OC(=O)NC4CCN(Cc5ccc(F)cc5)CC4)C=C[C@@]31CCN(C)C2` yielded an inhibition (Cholinesterase [1]) of 21% and an IC50 (Acetylcholinesterase) of 399 nM.

With `COc1ccc2c3c1O[C@H]1C[C@@H](OC(=O)NCc4ccc([N+](=O)[O-])cc4)C=C[C@@]31CCN(C)C2` the inhibition (Cholinesterase [1]) was 6.23%.

`COc1ccc2c3c1O[C@H]1C[C@@H](OC(=O)NCc4ccccc4C)C=C[C@@]31CCN(C)C2` showed an inhibition (Cholinesterase [1]) of 9.54%.

With `COc1ccc2c3c1O[C@H]1C[C@@H](OC(=O)NC4CCN(Cc5ccccc5F)CC4)C=C[C@@]31CCN(C)C2` the inhibition (Cholinesterase [1]) was 21.6% and the IC50 (Acetylcholinesterase) was 406 nM.

In the case of `COc1ccc2c3c1O[C@H]1C[C@@H](OC(=O)NCc4ccc5[nH]ccc5c4)C=C[C@@]31CCN(C)C2`, the inhibition (Cholinesterase [1]) is reported as 3.54%.

Compound `COc1ccc2c3c1O[C@H]1C[C@@H](OC(=O)NCc4ccc(C)cc4)C=C[C@@]31CCN(C)C2` has an inhibition (Cholinesterase [1]) of 4.99%.

Compound `COc1ccc2c3c1O[C@H]1C[C@@H](OC(=O)NC4CCN(Cc5ccc(C#N)cc5)CC4)C=C[C@@]31CCN(C)C2` has an inhibition (Cholinesterase [1]) of 21.3%.

In the case of `COc1ccc2c3c1O[C@H]1C[C@@H](OC(=O)NCc4ccc(C(F)(F)F)cc4)C=C[C@@]31CCN(C)C2`, the inhibition (Cholinesterase [1]) is reported as 14.9%.

Compound `COc1ccc2c3c1O[C@H]1C[C@@H](OC(=O)NCc4ccccc4F)C=C[C@@]31CCN(C)C2` has an inhibition (Cholinesterase [1]) of 18.4%.

Work on `COc1ccc2c3c1O[C@H]1C[C@@H](OC(=O)NC4CCN(Cc5cccc(C(F)(F)F)c5)CC4)C=C[C@@]31CCN(C)C2` yielded an inhibition (Cholinesterase [1]) of 25.1% and an IC50 (Acetylcholinesterase) of 601 nM.

Work on `COc1ccc2c3c1O[C@H]1C[C@@H](OCc4ccc(Cc5cccc(F)c5)cn4)C=C[C@@]31CCN(C)C2` yielded an inhibition (Cholinesterase [1]) of 92.3% and an IC50 (Cholinesterase [2]) of 743 nM.

With `COc1ccc2c3c1O[C@H]1C[C@@H](OC(=O)NCc4ccc(C#N)cc4)C=C[C@@]31CCN(C)C2` the inhibition (Cholinesterase [1]) was 2.57%.

Compound `COc1ccc2c3c1O[C@H]1C[C@@H](OCc4ccc(Cc5ccc(Cl)cc5)cn4)C=C[C@@]31CCN(C)C2` has an inhibition (Cholinesterase [1]) of 88.7% and an IC50 (Cholinesterase [2]) of 1030 nM.

For `COc1ccc2c3c1O[C@H]1C[C@@H](OC(=O)NC4CCN(Cc5cccc(F)c5)CC4)C=C[C@@]31CCN(C)C2`, the Activity (PC-12 [3]) was “Active”, the inhibition (Cholinesterase [1]) was 18.6% and the Activity (PC-12 [4]) was 10.3%. The IC50 (Acetylcholinesterase) was 419 nM, the Activity (PC-12 [5]) was 82.7% and the viability at 4 h, 50 µM [6] was > 90%. For the same compound, the Activity (PC-12 [7]) was 1.27%, the Flu intensity [8] was 52051 and the Activity (PC-12 [9]) was 5.71%.

For `COc1ccc2c3c1O[C@H]1C[C@@H](OC(=O)NCc4ccccc4)C=C[C@@]31CCN(C)C2`, the inhibition (Cholinesterase [1]) was 10.4%.

With `COc1ccc2c3c1O[C@H]1C[C@@H](OCc4ccc(Cc5ccccc5)cn4)C=C[C@@]31CCN(C)C2` the inhibition (Cholinesterase [1]) was 91.2% and the IC50 (Cholinesterase [2]) was 1500 nM.

With `COc1ccc2c3c1O[C@H]1C[C@@H](OC(=O)NC4CCN(Cc5ccc(OC(F)(F)F)cc5)CC4)C=C[C@@]31CCN(C)C2` the inhibition (Cholinesterase [1]) was 26% and the IC50 (Acetylcholinesterase) was 451 nM.

`COc1ccc2c3c1O[C@H]1C[C@@H](OC(=O)NCc4cc(F)cc(F)c4)C=C[C@@]31CCN(C)C2` gave an inhibition (Cholinesterase [1]) of 4.56%.

Work on `COc1ccccc1Cc1ccc(CO[C@H]2C=C[C@@]34CCN(C)Cc5ccc(OC)c(c53)O[C@H]4C2)nc1` yielded an inhibition (Cholinesterase [1]) of 84.4%, an IC50 (Cholinesterase [2]) of 2660 nM and an IC50 (Acetylcholinesterase) of 3200 nM.

`COc1ccc2c3c1O[C@H]1C[C@@H](OC(=O)NCc4ccc(OC(F)(F)F)cc4)C=C[C@@]31CCN(C)C2` showed an inhibition (Cholinesterase [1]) of 18.2%.

`Oc1ccc(/C=C/c2cc(O)cc(O)c2)cc1` [RESVERATROL] showed an Activity (PC-12 [4]) of 6.38%, an Activity (PC-12 [5]) of 88.3% and an Activity (PC-12 [7]) of 1.79%. For the same compound, the Flu intensity [8] was 29540 and the Activity (PC-12 [9]) was 3.58%.

For `COc1ccc(CNC(=O)O[C@H]2C=C[C@@]34CCN(C)Cc5ccc(OC)c(c53)O[C@H]4C2)cc1`, the inhibition (Cholinesterase [1]) was 2.97%.

For `COc1ccc2c3c1O[C@H]1C[C@@H](OC(=O)NCc4ccc(F)cc4)C=C[C@@]31CCN(C)C2`, the inhibition (Cholinesterase [1]) was 12.7%.

Work on `COc1cccc(Cc2ccc(CO[C@H]3C=C[C@@]45CCN(C)Cc6ccc(OC)c(c64)O[C@H]5C3)nc2)c1` yielded an inhibition (Cholinesterase [1]) of 88.2% and an IC50 (Cholinesterase [2]) of 1070 nM.

In the case of `COc1ccc2c3c1O[C@H]1C[C@@H](OC(=O)NCc4ccc(F)cc4F)C=C[C@@]31CCN(C)C2`, the inhibition (Cholinesterase [1]) is reported as 13.5%.

Compound `COc1ccc2c3c1O[C@H]1C[C@@H](OCc4ccc(Cc5ccc(C)cc5)cn4)C=C[C@@]31CCN(C)C2` has an inhibition (Cholinesterase [1]) of 87.4% and an IC50 (Cholinesterase [2]) of 1350 nM.

In the case of `COc1ccc2c3c1O[C@H]1C[C@@H](OCc4ccc(Cc5cccc(Cl)c5)cn4)C=C[C@@]31CCN(C)C2`, the Activity (PC-12 [3]) is reported as “Active”, the inhibition (Cholinesterase [1]) is reported as 90.5% and the IC50 (Cholinesterase [2]) is reported as 913 nM. For the same compound, the Activity (PC-12 [4]) was 15%, the IC50 (Acetylcholinesterase) was 3390 nM and the Activity (PC-12 [5]) was 72.4%. For the same compound, the viability at 4 h, 50 µM [6] was > 90%, the Activity (PC-12 [7]) was 1.45% and the Flu intensity [8] was 88808. For the same compound, the Activity (PC-12 [9]) was 10.9%.

Compound `COc1ccc2c3c1O[C@H]1C[C@@H](OC(=O)NC4CCN(Cc5ccc(Cl)cc5)CC4)C=C[C@@]31CCN(C)C2` has an inhibition (Cholinesterase [1]) of 30.2%.

`COc1ccc2c3c1O[C@H]1C[C@@H](OC(=O)NC4CCN(Cc5ccc([N+](=O)[O-])cc5)CC4)C=C[C@@]31CCN(C)C2` gave an inhibition (Cholinesterase [1]) of 24.6%.

In the case of `COc1ccc2c3c1O[C@H]1C[C@@H](OC(=O)NC4CCN(Cc5ccccc5)CC4)C=C[C@@]31CCN(C)C2`, the Activity (PC-12 [3]) is reported as “Active”, the inhibition (Cholinesterase [1]) is reported as 29.2% and the Activity (PC-12 [4]) is reported as 10.7%. The IC50 (Acetylcholinesterase) was 370 nM, the Activity (PC-12 [5]) was 79.3% and the viability at 4 h, 50 µM [6] was > 90%. For the same compound, the Activity (PC-12 [7]) was 1.35%, the Activity (PC-12 [10]) was “Dose-dependent-effect” and the Flu intensity [8] was 76256. The Activity (PC-12 [9]) was 8.66%.
